# Key:
# [1] = tested on: oral squamous cell carcinoma cells (OC3-IV2); experiment: MTT survival assay, OC3-IV2; format: cell-based; conditions: Homo sapiens, 48 h, read-out: IC50, survival rate
# Protocol: According to the present invention, human oral cancer cell line OC3-IV2 cells (Lin S C et al, J Oral Pathol Med. 2004 February; 33(2):79-86 and Lu Y C et al, Cancer Prey Res (Phila). 2012 April; 5(4):665-74) were cultured in a 1:1 ratio of Dulbecco's modified Eagle medium (DMEM; Invitrogen) and keratinocyte serum-free medium (KSFM; Invitrogen) containing 10% fetal bovine serum (FBS; Invitrogen, Carlsbad, Calif., USA), 1% L-glutamine (L-Gln, Invitrogen) and 1% antibiotic-antimycotic (AA, Invitrogen). Cells were maintained in a humidified atmosphere containing 5% CO2 at 37° C., and the culture medium was replaced every 2 days.
# Isoplumbagin (AKOS006277326, acquired from AKos GmbH, Steinen, Germany) was dissolved in dimethyl sulfoxide (DMSO) and added to the medium, so that the final concentration of DMSO was less than 0.1%. The survival rate of isoplumbagin on OC3-IV2, U87, H1299 and PC3 cell lines was determined using the 3-(4,5-dimethylthiazol-2-yl)-2,5-diphenyltetrazolium bromide (MTT; Sigma-Aldrich) assays. 3×10^3 cells/well were seeded in 96-well plates. After incubation for 24 h, cells were treated with isoplumbagin at various concentrations (0, 1, 5, 10, 25, 50 and 100 μM) and incubated for a further 48 h. At the end of treatment, 10 μL 5 mg/mL MTT was added to each well. […] The absorbance of dissolved formazan was measured at 550 nm wavelengths by a spectrophotometer. […]
# [2] = tested on: human prostate cancer cells (PC3); experiment: Boyden chamber invasion assay, PC3; format: cell-based; conditions: 2.5, 5 and 10 μM, 24 h, dose dependency (FIG. 2D)
# Protocol: Cells were harvested by […] and resuspended in a serum-free medium with 0.1% BSA. Then, […] of cell suspension (2×10^5 cells) was seeded into the upper insert of SPLInsert with Polyethylene terephthalate (PET) membrane (pore size: 8.0 μm) (SPL Lifesciences, Korea) pre-coated with matrigel (BD Biosciences, San Jose, Calif.). The bottom well of 24-well plate of SPLInsert was filled with cell medium containing 10% FBS with different concentrations of isoplumbagin (5, 7.5 and 10 μM, Experimental group of oral squamous cell carcinoma cells (OC3-IV2); 2.5, 5 and 10 μM, Experimental groups of human primary glioblastoma cells (U87), human non-small cell lung carcinoma cells (H1299), human prostate cancer cells (PC3) and human cervical cancer cells (Hela)) or without isoplumbagin (DMSO added). […] Number of cells was counted using Image J. Relative invasion ability was calculated as cell number per area.
# FIGS. 2A-2E show the inhibitory effect of different doses of isoplumbagin on invasion for oral squamous cell carcinoma cells (OC3-IV2), human primary glioblastoma cells (U87), human non-small cell lung carcinoma cells (H1299), prostate cancer cells (PC3) and cervical cancer cells (Hela) assessed with the Boyden chamber assays. *Compared with solvent control (DMSO). […]
# mitochondrial complex IV = experiment: Mitochondrial complex activity in permeabilized cells (Oroboros); format: cell-based, human; conditions: OC3-IV2 permeabilized with 5 μM digitonin; 2.5 μM
# Protocol: For the cell permeabilization and measurement of mitochondrial complex activity in permeabilized cells using Oroboros Instruments, 5×10^5 cells/mL treated with DMSO or 2.5 μM isoplumbagin suspended in 2 mL MiR05 buffer (110 mM D-sucrose, 0.5 mM EGTA, 3.0 mM MgCl2, 60 mM lactobionic acid, 10 mM KH2PO4, 20 mM taurine, 20 mM HEPES, 1 g/L BSA, pH 7.1) were added in O2k Oxygraph chambers. After cells had stabilized at routine respiration, plasma membrane permeabilization was performed by adding 5 μM digitonin and then O2 consumption rate was measured in response to sequential additions of 10 mM glutamate and 2 mM malate or 10 mM succinate, followed by 5 mM ADP, […], 0.5 μM FCCP, 1 μM rotenone, 1 μM antimycin A, 0.1 mM TMPD, 0.4 mM ascorbate and 5 mM NaN3.
# FIGS. 6A and 6B show the inhibitory effect of isoplumbagin on mitochondrial function and complex IV activity of oral squamous cell carcinoma cells (OC3-IV2). Oxygen consumption rate (OCR) of OC3-IV2 cells treated with DMSO (as control) or 2.5 μM isoplumbagin were measured by Oroboros instruments (FIG. 6A). […] OC3-IV2 cells treated with DMSO or 2.5 μM isoplumbagin were permeabilized with 5 μM digitonin (Dig) and added indicated substrates and inhibitors, and then mitochondria complex I/IV activity were determined by Oroboros instruments (FIG. 6B). […]
compound,measurement,setting,value
"CC1=CC(=O)c2cccc(O)c2C1=O [isoplumbagin, 5-hydroxy-3-methyl-1,4-naphthoquinone]",IC50,[1],1.02 µg/mL
same,cancer cells migrating through the membrane (invasion),[2],decrease significantly
same,mitochondrial complex IV activity,mitochondrial complex IV,inhibiting mitochondrial complex IV activity
